Values after ≈ are worked out from the molar mass of the structure shown.
Legend:
[1] = test system: Mycobacterium tuberculosis; test: Antitubercular activity against Mycobacterium tuberculosis H37Rv ATCC 27294 incubated up to 7 days measured on day 7 by microplate Alamar Blue assay; type: functional; details: H37Rv ATCC 27294, 168 h
[2] = test system: Mycobacterium tuberculosis; test: Antitubercular activity against recombinant Mycobacterium tuberculosis H37Rv expressing Vibrio harveyii luciferase gene with acetamidase promoter assessed as prevention of metabolic recovery incubated for 10 days in anaerobic environment followed by 28 hrs recovery in aerobic environment by low-oxygen recovery assay; type: functional

COc1ccc(-c2csc(Nc3ccc(C)cc3)n2)cc1
MIC90 [1]: 15.6 µM (≈ 4.62 µg/mL)

Cc1ccc(-c2nc(-c3ccccc3)c[nH]2)cc1
MIC90 [1]: 124 µM (≈ 29.1 µg/mL)

COc1cccc(-c2c[nH]c(-c3ccccc3)n2)c1
MIC90 [1]: 88.4 µM (≈ 22.1 µg/mL)

FC(F)(F)c1cccc(-c2c[nH]c(-c3ccccc3)n2)c1
MIC90 [1]: 37 µM (≈ 10.7 µg/mL)

COc1ccc(-c2csc(Nc3cc(Cl)cc(Cl)c3)n2)cc1
MIC90 [1]: 13 µM (≈ 4.57 µg/mL)

c1ccc(-c2c[nH]c(-c3ccncc3)n2)cc1
MIC90 [1]: > 128 µM

c1ccc(-c2c[nH]c(-c3ccccc3)n2)cc1
MIC90 [1]: 128 µM (≈ 28.1 µg/mL)

COc1ccccc1-c1nc(-c2ccccc2)c[nH]1
MIC90 [1]: > 128 µM

Oc1ccc(-c2nc(-c3ccccc3)c[nH]2)cc1
MIC90 [1]: > 128 µM

FC(F)(F)Oc1cccc(-c2nc(-c3ccccc3)c[nH]2)c1
MIC90 [1]: 35.5 µM (≈ 10.8 µg/mL)

COc1cccc(-c2nc(-c3ccccc3)c[nH]2)c1OC
MIC90 [1]: 55.2 µM (≈ 15.5 µg/mL)

Fc1cc(-c2nc(-c3cccc(C(F)(F)F)c3)c[nH]2)cc(C(F)(F)F)c1
MIC90 [1]: 6 µM (≈ 2.25 µg/mL)
MIC90 [2]: 17.6 µM

COc1cc(-c2nc(-c3cccc(C(F)(F)F)c3)c[nH]2)cc(C(F)(F)F)c1
MIC90 [1]: 7.3 µM (≈ 2.82 µg/mL)
MIC90 [2]: 63.7 µM

FC(F)(F)c1cccc(-c2c[nH]c(-c3cc(C(F)(F)F)cc(C(F)(F)F)c3)n2)c1
MIC90 [1]: 7.7 µM (≈ 3.27 µg/mL)
MIC90 [2]: 11.3 µM

Cc1[nH]c(-c2cccc(C(F)(F)F)c2)nc1-c1cccc(C(F)(F)F)c1
MIC90 [1]: 14 µM (≈ 5.18 µg/mL)

Cn1cc(-c2cccc(C(F)(F)F)c2)nc1-c1cccc(C(F)(F)F)c1
MIC90 [1]: 7.9 µM (≈ 2.93 µg/mL)
MIC90 [2]: 50.7 µM

Clc1cccc(-c2c[nH]c(-c3ccccc3)n2)c1
MIC90 [1]: 60.3 µM (≈ 15.4 µg/mL)

Clc1ccc(-c2c[nH]c(-c3ccccc3)n2)cc1
MIC90 [1]: 59.5 µM (≈ 15.2 µg/mL)

COc1ccc(-c2nc(-c3ccccc3)c[nH]2)cc1
MIC90 [1]: 119 µM (≈ 29.9 µg/mL)

COc1cccc(-c2nc(-c3ccccc3)c[nH]2)c1
MIC90 [1]: 73.7 µM (≈ 18.4 µg/mL)

FC(F)(F)c1cccc(-c2nc(-c3ccccc3)c[nH]2)c1
MIC90 [1]: 30.6 µM (≈ 8.82 µg/mL)

O=[N+]([O-])c1ccc(-c2c[nH]c(-c3ccccc3)n2)cc1
MIC90 [1]: > 128 µM

O=[N+]([O-])c1cccc(-c2nc(-c3ccccc3)c[nH]2)c1
MIC90 [1]: 60.6 µM (≈ 16.1 µg/mL)

COc1ccc(-c2c[nH]c(-c3ccccc3)n2)cc1
MIC90 [1]: 82.4 µM (≈ 20.6 µg/mL)

FC(F)(F)c1ccc(-c2c[nH]c(-c3ccccc3)n2)cc1
MIC90 [1]: > 128 µM

FC(F)(F)c1cccc(-c2c[nH]c(-c3ccc(Cl)cc3)n2)c1
MIC90 [1]: 29.8 µM (≈ 9.62 µg/mL)

Clc1cccc(-c2nc(-c3ccccc3)c[nH]2)c1
MIC90 [1]: 60.4 µM (≈ 15.4 µg/mL)

Clc1ccc(-c2nc(-c3ccccc3)c[nH]2)cc1
MIC90 [1]: 59.8 µM (≈ 15.2 µg/mL)

c1ccc(-c2c[nH]c(-c3ccsc3)n2)cc1
MIC90 [1]: 107 µM (≈ 24.3 µg/mL)

FC(F)(F)c1ccc(-c2nc(-c3ccccc3)c[nH]2)cc1
MIC90 [1]: 48.9 µM (≈ 14.1 µg/mL)

FC(F)(F)c1cccc(-c2c[nH]c(-c3cccc(C(F)(F)F)c3)n2)c1
MIC90 [1]: 1.7 µM (≈ 0.606 µg/mL)
MIC90 [2]: 25.4 µM

c1ccc(-c2c[nH]c(C3CCCCC3)n2)cc1
MIC90 [1]: 125 µM (≈ 28.2 µg/mL)

NNC(=O)c1ccncc1 [ISONIAZID]
MIC90 [1]: 0.1 µM (≈ 0.0137 µg/mL)

CO[C@H]1/C=C/O[C@@]2(C)Oc3c(C)c(O)c4c(O)c(c(/C=N/N5CCN(C)CC5)c(O)c4c3C2=O)NC(=O)/C(C)=C\C=C\[C@H](C)[C@H](O)[C@@H](C)[C@@H](O)[C@@H](C)[C@H](OC(C)=O)[C@@H]1C [RIFAMPIN]
MIC90 [1]: 0.05 µM (≈ 0.0411 µg/mL)
